The source of these data is patent US7666901B2, “Analogs of 17-hydroxywortmannin as PI3K inhibitors” (Wyeth, priority 2004, dated 2010).

The IC50 is the concentration at which inhibition is half-maximal.

SMILES strings stand for the structures.

Assay [1] deals with LNCaP (human prostate carcinoma). Kind of assay: Cell proliferation (MTS) assay, LNCaP. In kind it is cell-based. To be noted: Homo sapiens, LNCaP, 72 h, three days treatment. How it is done: (§1) Results of cell proliferation assays for exemplary compounds are shown below in Tables 1 and 2. Cell lines LNCaP (human prostate carcinoma), MDA468 (human breast cancer cell), MDA435 (human breast adenocarcinoma), and DU145 (human prostate carcinoma[…]) were purchased from American Type Culture Collection (ATCC) (Rockville, Md.). Cells were cultured in RPMI Medium 1640 containing 10% fetal bovine serum (FBS) in a 37° C. incubator containing 5% CO2. All cell culture reagents were purchased from Gibco-BRL (Grand Island, N.Y.). Cells were plated in 96-well culture plates at about 3000 cells per well. One day following plating, compounds or vehicle controls (buffer only) were added to cells. Proliferation assays were performed three days post initiation of treatment.
(§2) For a non-radioactive cell proliferation assay, viable cell densities are determined by measuring metabolic conversion (by viable cells) of the dye MTS tatrazolium dye, a cell proliferation assay known by one of skill in the art (MTS assay), a previously established cell proliferation assay. The assay is performed using an assay kit (Promega Corp., Madison, Wis.). The assay plates are incubated for 1-2 hours, and the results are read in a 96-well format plate reader by measuring absorbance at 490 nm. Effect of each compound is calculated as a percentage of control cell growth obtained from vehicle-treated cells grown in the same plate.

Assay [2] relates to MDA435 (human breast adenocarcinoma). In words: Cell proliferation (MTS) assay, MDA435. The note with it: Homo sapiens, MDA435, 72 h, three days treatment. In kind it is cell-based. How it is done: as §1, §2
The test system of assay [3] is phosphor-AKT (S473) in Rat1 cells. Kind of assay: Rat1-IGF1 assay (IGF-1 induced phospho-AKT immunoblot). To be noted: Rattus norvegicus, Table 1. In kind it is cell-based, rat. How it is done: Rat1 cells are plated in 6-well culture plates and serum-starved for 24 hours. Serum-starved cells are treated either with control vehicle or with various concentrations of 17-HWT for 2 hours, stimulated by IGF-1 (100 ng/mL) for 30 minutes. Total cellular lysates are prepared using NuPAGE-LDS sample buffer (Invitrogen), sonicated and then clarified by centrifugation. Equal amounts of proteins are subject to immunoblotting analysis using NuPAGE electrophoresis system and probed with phosphor-AKT (S473), total AKT antibodies (Signaling Technology).
(Immunoblotting shows a protein as a band on a membrane.)

The subject of assay [4] is DU145 (human prostate carcinoma/lymphocytic leukemia). Kind of assay: Cell proliferation (MTS) assay, DU145. To be noted: Homo sapiens, DU-145, 72 h, three days treatment. It counts as cell-based. How it is done: as §1, §2
The test system of assay [5] is MDA468 (human breast cancer cell). Kind of assay: Cell proliferation (MTS) assay, MDA468. It counts as cell-based. To be noted: Homo sapiens, 72 h, three days treatment. How it is done: as §1, §2
For assay [6], the target named is T1, Human TOR (Homo sapiens, UniProt P42345).
T1 construct: FLAG
Kind of assay: Human TOR (mTOR) kinase assay, DELFIA format. It counts as biochemical. How it is done:
The PI3K/AKT/TOR pathway is critical for cell proliferation, growth, survival, and angiogensis. Accordingly, compounds of the present invention may also be useful to inhibit TOR activity. Similar in vivo and in vitro assays to those described above with reference to PI3K can be used to determine the minimum concentration of compound sufficient to inhibit TOR. A human TOR assay and a Rat1-IGF1 assay as described in Examples 67 and 68, respectively was performed with some embodiments of the invention. The results of these assays are shown below in Tables 1 and 2.
Human TOR assays (See Toral-Barza, et al. Biochem Biophys. Res. Commun. 2005 Jun. 24; 332(1):304-10) with purified enzyme are performed in 96-well plates by DELFIA format as follows. Enzymes are first diluted in kinase assay buffer (10 mM Hepes (pH 7.4), 50 mM NaCl, 50 mM b-glycerophosphate, 10 mM MnCl2, 0.5 mM DTT, 0.25 mM microcystin LR, and […] BSA). To each well, 12 mL of the diluted enzyme is mixed briefly with 0.5 mL test inhibitor or control vehicle dimethylsulfoxide (DMSO). The kinase reaction is initiated by adding 12.5 mL kinase assay buffer containing ATP and His6-S6K to give a final reaction volume of 25 mL containing 800 ng/mL FLAG-TOR, […] ATP and […] His6-S6K. The reaction plate is incubated for 2 hours (linear at 1-6 hours) at room temperature with gentle shaking and then terminated by adding 25 mL Stop buffer (20 mM Hepes (pH 7.4), 20 mM EDTA, 20 mM EGTA). The DELFIA detection of the phosphorylated (Thr-389) His6-S6K is performed at room temperature using a monoclonal anti-P(T389)-p70S6K antibody (1A5, Cell Signaling) labeled with Europium-N1-ITC (Eu) (10.4 Eu per antibody, PerkinElmer). The DELFIA Assay buffer and Enhancement solution can be purchased from PerkinElmer. 45 mL of the terminated kinase reaction mixture is transferred to a MaxiSorp plate (Nunc) containing 55 mL PBS. The His6-S6K is allowed to attach for 2 hours after which the wells are aspirated and washed once with PBS. 100 mL of DELFIA Assay buffer with 40 ng/mL Eu-P(T389)-S6K antibody is added. The antibody binding is continued for 1 hour with gentle agitation. The wells are then aspirated and washed 4 times with PBS containing 0.05% Tween-20 (PBST). […] of DELFIA Enhancement solution is added to each well and the plates are read in a PerkinElmer Victor model plate reader. Data obtained is used to calculate enzymatic activity and enzyme inhibition by potential inhibitors.

As to `CCCCN(C)/C=C1/C(=O)O[C@H](COC)[C@@]2(C)C1=C(O)C(=O)C1=C2[C@H](OC(C)=O)C[C@@]2(C)C1CC[C@@H]2O` (stereo partly drawn) [Compound 8, (1E,4S,4aR,5R,6aS,7S)-1-{[butyl(methyl)amino]methylene}-7,11-dihydroxy-4-(methoxymethyl)-4a,6a-dimethyl-2,10-dioxo-1,2,4,4a,5,6,6a,7,8,9,9a,10-dodecahydroindeno[4,5-h]isochromen-5-yl acetate], the IC50 in assay [1] (Table 1) worked out at 0.09 µg/mL; in assay [1] (Table 2) it was 0.12 µg/mL; in assay [2] (Table 1), 5 µg/mL; in assay [2] (Table 2), 3.1 µg/mL; in assay [3], 0.1 µg/mL; in assay [4] (Table 1), 2 µg/mL. Further, the half-inhibitory concentration (IC50) in assay [4] (Table 2) was 1.3 µg/mL; in assay [5] (Table 1) it was 0.6 µg/mL; in assay [5] (Table 2), 0.9 µg/mL; in assay [6] (Table 1), 8310 nM; in assay [6] (Table 2), 9080 nM.

As for `COC[C@H]1OC(=O)/C(=C/N(C)C2CCCCC2)C2=C(O)C(=O)C3=C([C@H](OC(C)=O)C[C@@]4(C)C3CC[C@@H]4O)[C@]21C` (stereo partly drawn) [Compound 9, (1E,4S,4aR,5R,6aS,7S)-1-{[cyclohexyl(methyl)amino]methylene}-7,11-dihydroxy-4-(methoxymethyl)-4a,6a-dimethyl-2,10-dioxo-1,2,4,4a,5,6,6a,7,8,9,9a,10-dodecahydroindeno[4,5-h]isochromen-5-yl acetate], the IC50 in assay [1] (Table 1) is 9.5 µg/mL; in assay [2] (Table 1), 15 µg/mL; in assay [3], greater than 0.1 µg/mL; in assay [4] (Table 1), 13 µg/mL; in assay [5] (Table 1), 10 µg/mL; in assay [6] (Table 1), 86500 nM.

With `COC[C@H]1OC(=O)/C(=C/N2CCN(Cc3ccccc3)CC2)C2=C(O)C(=O)C3=C([C@H](OC(C)=O)C[C@@]4(C)C3CC[C@@H]4O)[C@]21C` (stereo partly drawn) [Compound 10, (1E,4S,4aR,5R,6aS,7S)-1-[(4-benzylpiperazin-1-yl)methylene]-7,11-dihydroxy-4-(methoxymethyl)-4a,6a-dimethyl-2,10-dioxo-1,2,4,4a,5,6,6a,7,8,9,9a,10-dodecahydroindeno[4,5-h]isochromen-5-yl acetate], the half-inhibitory concentration (IC50) in assay [1] (Table 1) was 1 µg/mL; in assay [2] (Table 1) it was greater than 15 µg/mL; in assay [3], 0.02 µg/mL; in assay [4] (Table 1) it was 15 µg/mL; in assay [5] (Table 1) it was 1.8 µg/mL; in assay [6] (Table 1) it was 890 nM.

With `COC[C@H]1OC(=O)/C(=C/N2CCCCC2)C2=C(O)C(=O)C3=C([C@H](OC(C)=O)C[C@@]4(C)C3CC[C@@H]4O)[C@]21C` (stereo partly drawn) [Compound 11, (1E,4S,4aR,5R,6aS,7S)-7,11-dihydroxy-4-(methoxymethyl)-4a,6a-dimethyl-2,10-dioxo-1-(piperidin-1-ylmethylene)-1,2,4,4a,5,6,6a,7,8,9,9a,10-dodecahydroindeno[4,5-h]isochromen-5-yl acetate], the half-inhibitory concentration (IC50) is 0.8 µg/mL in assay [1] (Table 1); greater than 15 µg/mL in assay [2] (Table 1); 0.02 µg/mL in assay [3]; 15 µg/mL in assay [4] (Table 1); 1.8 µg/mL in assay [5] (Table 1); 1900 nM in assay [6] (Table 1).

Consider `COC[C@H]1OC(=O)/C(=C/N2CCc3ccccc3C2)C2=C(O)C(=O)C3=C([C@H](OC(C)=O)C[C@@]4(C)C3CC[C@@H]4O)[C@]21C` (stereo partly drawn) [Compound 12, (1E,4S,4aR,5R,6aS,7S)-1-(3,4-dihydroisoquinolin-2(1H)-ylmethylene)-7,11-dihydroxy-4-(methoxymethyl)-4a,6a-dimethyl-2,10-dioxo-1,2,4,4a,5,6,6a,7,8,9,9a,10-dodecahydroindeno[4,5-h]isochromen-5-yl acetate], for which the IC50 was 2.8 µg/mL in assay [1] (Table 1); greater than 15 µg/mL in assay [2] (Table 1); 0.1 µg/mL in assay [3]; greater than 15 µg/mL in assay [4] (Table 1); 6 µg/mL in assay [5] (Table 1); 3190 nM in assay [6] (Table 1).

Regarding `COC[C@H]1OC(=O)/C(=C/N2CCN(c3ccccc3)CC2)C2=C(O)C(=O)C3=C([C@H](OC(C)=O)C[C@@]4(C)C3CC[C@@H]4O)[C@]21C` (stereo partly drawn) [Compound 13, (1E,4S,4aR,5R,6aS,7S)-7,11-dihydroxy-4-(methoxymethyl)-4a,6a-dimethyl-2,10-dioxo-1-[(4-phenylpiperazin-1-yl)methylene]-1,2,4,4a,5,6,6a,7,8,9,9a,10-dodecahydroindeno[4,5-h]isochromen-5-yl acetate], the IC50 is 0.8 µg/mL in assay [1] (Table 1); 0.33 µg/mL in assay [1] (Table 2); greater than 15 µg/mL in assay [2] (Table 1); 13 µg/mL in assay [2] (Table 2); 0.05 µg/mL in assay [3]; 15 µg/mL in assay [4] (Table 1). The half-inhibitory concentration (IC50) was 17 µg/mL in assay [4] (Table 2); 2 µg/mL in assay [5] (Table 1); 3.5 µg/mL in assay [5] (Table 2); 607 nM in assay [6] (Table 1); 776 nM in assay [6] (Table 2).

With `COC[C@H]1OC(=O)/C(=C/N2CCN(C)CC2)C2=C(O)C(=O)C3=C([C@H](OC(C)=O)C[C@@]4(C)C3CC[C@@H]4O)[C@]21C` (stereo partly drawn) [Compound 14, (1E,4S,4aR,5R,6aS,7S)-7,11-dihydroxy-4-(methoxymethyl)-4a,6a-dimethyl-1-[(4-methylpiperazin-1-yl)methylene]-2,10-dioxo-1,2,4,4a,5,6,6a,7,8,9,9a,10-dodecahydroindeno[4,5-h]isochromen-5-yl acetate], the IC50 is 0.58 µg/mL in assay [1] (Table 1); greater than 15 µg/mL in assay [2] (Table 1); 0.02 µg/mL in assay [3]; 15 µg/mL in assay [4] (Table 1); 2 µg/mL in assay [5] (Table 1); 829 nM in assay [6] (Table 1).

For `COC[C@H]1OC(=O)/C(=C/N2CCC(c3ccccc3)CC2)C2=C(O)C(=O)C3=C([C@H](OC(C)=O)C[C@@]4(C)C3CC[C@@H]4O)[C@]21C` (stereo partly drawn) [Compound 15, (1E,4S,4aR,5R,6aS,7S)-7,11-dihydroxy-4-(methoxymethyl)-4a,6a-dimethyl-2,10-dioxo-1-[(4-phenylpiperidin-1-yl)methylene]-1,2,4,4a,5,6,6a,7,8,9,9a,10-dodecahydroindeno[4,5-h]isochromen-5-yl acetate], the IC50 in assay [1] (Table 1) was 0.9 µg/mL; in assay [2] (Table 1) it was greater than 15 µg/mL; in assay [3], 0.02 µg/mL; in assay [4] (Table 1) it was 15 µg/mL; in assay [5] (Table 1), 2.3 µg/mL; in assay [6] (Table 1), 2450 nM.
